IC50 data for 4 molecules are collected here from publication PMC11078216, “Discovery of potent and selective activity-based probes (ABPs) for the deubiquitinating enzyme USP30” (RSC Chemical Biology, 2024).

The target in this assay is T1, USP30 (Homo sapiens, UniProt Q70CQ3).
T1 construct: Catalog #E-582 residues 57-517; purchased E-582
T1 sequence (Q70CQ3 57-517): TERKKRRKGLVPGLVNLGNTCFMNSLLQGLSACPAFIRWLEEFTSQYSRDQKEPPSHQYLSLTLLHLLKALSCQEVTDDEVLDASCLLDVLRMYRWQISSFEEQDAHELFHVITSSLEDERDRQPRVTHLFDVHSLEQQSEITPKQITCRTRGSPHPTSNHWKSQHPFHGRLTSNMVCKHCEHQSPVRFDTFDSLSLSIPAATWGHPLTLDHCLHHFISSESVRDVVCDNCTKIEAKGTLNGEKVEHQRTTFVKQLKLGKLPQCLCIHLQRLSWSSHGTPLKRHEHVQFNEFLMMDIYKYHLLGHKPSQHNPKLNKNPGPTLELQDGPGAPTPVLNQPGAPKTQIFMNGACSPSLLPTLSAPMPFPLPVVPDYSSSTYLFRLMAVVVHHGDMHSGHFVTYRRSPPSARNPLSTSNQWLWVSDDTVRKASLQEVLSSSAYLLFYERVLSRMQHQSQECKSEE
Description: USP30 biochemical IC50 fluorescence polarisation assay using Ub-Lys(TAMRA)-Gly. Particulars: 30 min incubation, USP30 5 nM, Ub-Lys(TAMRA)-Gly 100 nM; read-out: IC50 against USP30. The procedure: We first confirmed biochemical inhibition of USP30 with our probes in a fluorescence polarisation (FP) assay using a TAMRA labelled Lys-Gly dipeptide linked to ubiquitin via an isopeptide bond (Ub-Lys(TAMRA)-Gly). USP30 (5 nM) was incubated across a concentration series of test compound for 30 min, followed by FP measurement after addition of Ub-Lys(TAMRA)-Gly (100 nM).
4. Biochemical and biological methods and proteomics
1) Biochemical USP30 fluorescence polarisation (FP) assay using Ub-Lys(TAMRA)-Gly a. USP30 biochemical IC50 assay
Reactions were performed in triplicate in black 384 well plates (Greiner #784076) in a final reaction volume of 21 μL. Compound dilutions were prepared at 21× final concentration (2000 nM for a final concentration of 100 nM) in 50% DMSO/water. USP30 was diluted in reaction buffer A (40 mM Tris, pH 7.5, 0.005% Tween 20, 0.5 mg/ml BSA, 5 mM betamercaptoethanol) and 10 μL of diluted 10.5 nM USP30 was added to the compound (final concentration 5 nM). Enzyme and compound were incubated for 30 min at room temperature. Reactions were initiated by the addition of 10 ul 200 nM (final concentration 100 nM) of TAMRA labeled peptide linked to ubiquitin via an iso-peptide bond (Ub-Lys(TAMRA)-Gly, UbiQ-012). Reactions were read immediately after substrate addition using a Pherastar Plus (BMG Labtech; λEx 531 nm, λEm 579 nm). IC50 values were determined by plotting percentage USP30 activity against compound concentration and fitting a four -parameter dose-response curve (Graphpad Prism 5.03). […]
Kinetic progress curves were fitted to equation y = (vi/kobs) (1 − exp(−kobs*x)) to determine the kobs value (for first 30 min data). The kobs value was then plotted against the inhibitor concentration to […]
A general note: In fluorescence polarisation assays a small probe gives low polarisation when free and higher when bound to something large.

With `N#CN1CC[C@@H](NC(=O)c2cc(-c3ccccc3Oc3ccc(N=[N+]=[N-])cc3)n[nH]2)C1` [IMP-2586], the IC50 is 16.3 nM.

As for `C#Cc1cccc(-c2cc(NC(=O)CC3CCN(C#N)C3)on2)c1` (stereo not shown) [IMP-2587], the IC50 turned out to be 12.6 nM.

Regarding `N#CN1CC[C@H](CC(=O)Nc2cc(-c3cccc(Cl)c3)no2)C1` [compound 1, reference compound], the IC50 was determined as 18.3 nM.

Take `N#CN1CC[C@@H](NC(=O)c2cc(-c3ccccc3Oc3ccccc3)n[nH]2)C1` [compound 3, reference compound]: the IC50 turned out to be 4.8 nM.

For orientation: IC50 means the concentration that inhibits the measured activity by half.
